Results published in patent US10966959B2, “Use of a rotifer-derived compound and its analogs for preventing schistosomiasis” (Wisconsin Alumni Research Foundation, priority 2018, dated 2021).
“Also recorded” adds a separate entry of the source.

Tests used:
[1] = system: S. mansoni cercariae; assay: Mouse infection experiment (mouse tail exposure to drug-treated cercariae); format: in vivo; conditions: for liver granulomas / schistosome eggs in histological liver sections / adult worms recovered from infected mice: six weeks post infection
Procedure: Mouse Infection Experiment
Mouse infections were performed by exposing mouse tails to S. mansoni cercariae according to standard protocol from BRI with slight modifications (see Lewis et al., Curr. Protoc. Immunol., 2001, Chapter 19). Briefly, we secured mice in rodent restrainers (Thomas Scientific, Cat #551-BSRR) and put them vertically on top of a rack with grids. We pipetted 100 μL of each drug in proper concentration into a skinny glass tube (Fisher Scientific, Cat #14-958A) inside a 12×75 mm holding glass tube (VWR, Cat #47729-570). 300 μL of APW containing ˜200 cercariae were pipetted into each skinny tube and incubated for 10 mins before we inserted mouse tail. Mouse tails were wiped with APW-moistened Kimwipes, inserted into the skinny tube, and exposed to cercariae for 30 mins. We sacrificed and perfused these mice six week-post infection. For each drug, we initially used three mice for controls (APW only) and three mice for each concentration tested except for 25 nM Ht-13-A and Ht-13-A-pr. We then repeated the experiments again with three mice for each condition. In addition, we included six mice for 25 nM Ht-13-A and Ht-13-A-pr so that we had six biological replicates total for each condition.
Adult worms were recovered by hepatic portal vein perfusion and briefly incubated in 2.5% Tricaine (Sigma) to separate males and females. We counted total numbers of adult worms under a stereomicroscope (Leica MZ75, Leica Microsystems). Livers from infected mice were fixed in 4% formaldehyde in PBS overnight. Largest liver lobes (left lobe) were submitted to University of Wisconsin-Madison Histology Core Facility for sectioning and Hematoxylin and Eosin staining. Each left lobe was evenly cut into 4-6 pieces and paraffin embedded on a large cassette. One slide (4-6 liver sections) for each liver was used for histological examination, which provided a representative view throughout the whole liver lobe. We took a tiled image of the whole slide using a Zeiss Axio Zoom microscope and used ImageJ (National Institutes of Health, Bethesda, Md.) to determine the area of each section. Total numbers of eggs in each section were counted and normalized to the area.
To determine if SPF-induced paralysis could prevent infection, ˜200 cercariae were treated with different concentrations of SPF (25 nM, 250 nM, and 2.5 μM) for 10 min followed by a 30 min mouse tail infection (N=6 for each condition). Six-weeks post infection, the mice were euthanized, hepatic portal vein perfusion was performed, recovered schistosomes were counted, and mouse liver pathology was examined. In the control group, 83 adult worms were recovered on average (FIG. 2(A)). Livers from these mice appeared dark in color and had extensive granuloma formation (FIG. 2(A)). […] Without wishing to be bound by theory, it is possible that mechanical and/or chemical stimuli from mouse tails may overcome the SPF-induced paralytic effects at low SPF concentrations.

[2] = system: S. mansoni cercariae; assay: Cercarial paralysis assay; format: cell-based
Procedure: Infected B. glabrata snails provided by Biomedical Research Institute (BRI, Rockville, Md.) were maintained in artificial pond water and fed Layer Crumbles (chicken feed) (Rural King, Mattoon, Ill.). To obtain S. mansoni cercariae, B. glabrata snails were exposed to light at 26° C. for 1-2 hrs. Artificial pond water containing cercariae was passed through 100 μm cell strainer (Falcon, Corning Inc., Corning, N.Y.) to remove snail food and feces. Cercariae were then collected using custom-made 20 μm cell strainers.
Cercarial Paralysis Assay
To capture the whole field while avoiding excess reflected light in a well, we used the lid of 96-well plate (Costar, Corning Inc., Corning, N.Y.). 40 μL of artificial pond water containing ˜50 cercariae were added to each shallow well on the lid. 10 μL of SPF (dissolved in APW) was then added to reach the final concentration indicated. Using a high-speed camera (Olympus i-SPEED TR), attached to a stereomicroscope (Leica MZ125, Leica Microsystems, Wetzlar, Germany), we recorded cercariae movement at 20-60 fps at 1.25× magnification just prior to addition of test compounds until 3-4 minutes after treatment started. Raw movies were converted to .avi files using i-SPEED Viewer and compressed into JPEG format using ImageJ (addition of compound is considered time 0). We then counted the numbers of free swimming/paralyzed cercariae every 5 seconds for 1 minute and every 30 seconds thereafter for 3 minutes. The number of dead cercariae (those that never swim before and after SPF treatment) were subtracted from data. Experiments were performed in triplicate.
To determine if cercariae react to SPF or other analogs in a dose-dependent manner, serial dilutions of SPF were made in APW. To quantify the paralysis effect of SPF, the movement of the cercariae was recorded, as well as the number of free-swimming and non-swimming cercariae. In the absence of SPF, over 82% of cercariae were free-swimming over three minutes (FIG. 1(A)). In the presence of 2.5 nM SPF, the percentage of free-swimming cercariae dropped to 67% at three minutes post drug treatment. As the concentration of SPF increased, the rate of paralysis increased, and more cercariae were paralyzed at the end of the treatment.

COc1ccc2[nH]cc3c2c1OC1C(C)CN(C)C1C3 (centres unmarked) [SPF, 5-methoxy-7,9-dimethyl-6a,7,8,9,9a,10-hexahydro-2H-pyrrolo[2′,3′:6,7]oxepino[4,3,2-cd]indole]
effect on mouse infection ([1]; 25 nM): not as severe
blocking / inhibition of infection ([1]; 250 nM): complete inhibition of infection
liver granulomas ([1]; 250 nM): no granulomas were observed
schistosome eggs in histological liver sections ([1]; 250 nM): clear of schistosome eggs
blocking / inhibition of infection ([1]; 2.5 μM): complete inhibition of infection
liver granulomas ([1]; 2.5 μM): no granulomas were observed
schistosome eggs in histological liver sections ([1]; 2.5 μM): clear of schistosome eggs
adult worms recovered from infected mice ([1]; cercariae treated with 250 nM for 10 min): no adult worms could be recovered
adult worms recovered from infected mice ([1]; cercariae treated with 2.5 μM for 10 min): no adult worms could be recovered
liver appearance (post perfusion) ([1]; higher concentrations of drug treatment): normal morphologies with few or no granulomas
liver appearance (post perfusion) ([1]; lower concentrations of drug): darker in color and contained more granulomas
percentage of free-swimming cercariae ([2]; 2.5 nM, three minutes post drug treatment): 67%
paralytic effect on cercariae ([2]; 25 nM, in vitro): could paralyze most cercariae
paralytic effect on cercariae ([2]; 250 nM): maximum paralytic effect; also recorded: full paralysis
time until majority of cercariae paralyzed ([2]; 250 nM): ≤ 30 s
paralytic effect on cercariae ([2]; 2.5 μM): maximum paralytic effect; also recorded: full paralysis
time until majority of cercariae paralyzed ([2]; 2.5 μM): ≤ 30 s
